Measurements as given in US4452813A, “Sulfonate derivatives, process for preparing same and antilipemic compositions containing the derivative” (Taiho Pharmaceutical Company Limited, priority 1981, dated 1984).
pIC50: −log10 of the molar value.

Key:
[1] = target: esterase (purified microsome fraction of the liver of a rat); assay: Esterase inhibiting activity (hydrolysis of methyl butyrate); format: biochemical; details: methyl butyrate substrate, pH 8.0, 37° C., 60 minutes
Experimental: 1. Esterase Inhibiting Activity
A 10 micromole quantity of methyl butyrate in a 50% ethanol solution is added as a substrate to a specified amount of buffer solution (pH 8.0) containing 0.1 mole of trishydrochloric acid. To the mixture is further added a 50% ethanol solution of the compound of the invention, immediately followed by addition of an esterase solution prepared from a purified microsome fraction of the liver of a rat (adjusted to hydrolyze 9 micromoles of methyl butyrate at 37° C. in one hour). The mixture is reacted at 37° C. for 60 minutes.
After the reaction, alkaline hydroxylamine is added to the mixture to form a hydroxamic acid derivative of methyl butyrate, and a ferric salt is added to the derivative. The resulting red color is colorimetrically determined (at a wavelength of 540 nm) to determine the amount of remaining methyl butyrate. The esterase inhibiting ratios of the present compound at least at three concentrations are plotted as ordinate, and the logarithms of the concentrations as abscissa to obtain a line, which gives the 50% inhibition concentration (IC50).

[2] = Acute toxicity, oral, one week; details: rat, in vivo, 5% gum arabic suspension
Description: Six-week-old male Wister rats weighing 180 to 200 g are used, 5 rats in each group. The present compound is suspended in a 5% aqueous solution of gum arabic, and the suspension is orally given to the rats. For one week after the start of the test, the rats are checked evey day for general toxicity symptoms, body weight and death to determine the LD50 value.

[3] = system: triglycerides content in the plasma; assay: Antilipemic effect: inhibition of olive oil-induced hyperlipidemia, plasma triglycerides; format: in vivo, male Wister rats; details: Rattus norvegicus, 100 mg compound in 5 ml olive oil, 5 ml/kg oral, 2 hours, read-out: Antilipemic effect IGI (%) (percent hyperlipidemia inhibition, triglycerides)
Experimental: Seven-week-old male Wister rats weighing 200 to 220 g are used, 5 rats in each group.
The compound of the invention (100 mg) is dissolved in 5 ml of olive oil. The olive oil containing the compound is orally given to the rat with a probe at a dose of 5 ml/kg. Two hours thereafter, 6 ml of whole blood is withdrawn from the descending aorta of the rat under ether anesthesia with a syringe containing heparin. The blood is centrifuged at 5° C. and 3000 r.p.m. to obtain the plasma. The plasma collected is used for determining the triglycerides content, using a triglycerides measuring kit (trade mark "Triglycerides-B Test Wako," product of Wako Junyaku Co., Ltd., Japan). Olive oil containing no compound is similarly given to a control group, while no treatment is conducted for a normal group. The triglycerides content in the plasma is also determined for these groups in the same manner as is the case with the test groups.
The percent hyperlipidemia inhibition achieved by the present compound is given by [formula] in which A is the triglycerides content of the control group, B is the triglycerides content of the normal group, and C is the triglycerides content of the group to which the present compound is given.

Chymotripsin = Chymotripsin (Bos taurus, UniProt P00766); assay: Chymotripsin inhibiting activity (hydrolysis of ATEE); format: biochemical; details: 0.5 h; 1 × 10^-4 mol; 20 min preincubation, ATEE 30 min, 37° C., pH 8.0
Experimental: 2. Chymotripsin Inhibiting Activity
Chymotripsin (0.1 unit) serving as an enzyme solution is added to a specified quantity of buffer solution (pH 8.0) containing 0.1 mole of trishydrochloric acid. To the mixture is further added a 50% ethanol solution of the compound of the invention. The mixture is reacted at 37° C. for 20 minutes.
On completion of the reaction, 10 micromoles of […] (ATEE) serving as a substrate is added to the mixture, and the resulting mixture is reacted at 37° C. for 30 minutes.
After the completion of the reaction, the amount of remaining ATEE is determined by the same hydroxamic acid method as above. The percent chymotripsin inhibition is given by [formula] wherein A is the amount of hydrolzed esters in the reaction system not containing the compound of the invention, and B is the amount of hydrolyzed esters in the reaction system containing the present compound.

Row | SMILES | pIC50 [1] | LD50 at 168 h [2] | inhibition in vivo at 100 mg/kg [3] | inhibition at 100 µM (Chymotripsin)
1 | CC(CC1CCCCC1)C(=O)COS(=O)(=O)c1ccccc1 (stereo not shown) [Compound 1, 1-benzenesulfonyloxy-4-cyclohexyl-3-methyl-2-butanone] | 6.46 | > 2000 mg/kg | 60% | 100%
2 | Cc1ccc(S(=O)(=O)OCC(=O)C(C)CC2CCCCC2)cc1 (stereo not shown) [Compound 2] | 5.11 | > 2000 mg/kg | 50% | 90%
3 | COc1ccc(S(=O)(=O)OCC(=O)C(C)CC2CCCCC2)cc1 (stereo not shown) [Compound 3] | 5.40 | > 3000 mg/kg | 63% | 93%
4 | CCOc1ccc(S(=O)(=O)OCC(=O)C(C)CC2CCCCC2)cc1 (stereo not shown) [Compound 4] | 4.64 | > 3000 mg/kg | 52% | 78%
5 | CCC(CC1CCCCC1)C(=O)COS(=O)(=O)c1ccccc1 (stereo not shown) [Compound 5, 1-benzenesulfonyloxy-4-cyclohexyl-3-ethyl-2-butanone] | 5.33 | > 2000 mg/kg | 80% | 12%
6 | CCC(CC1CCCCC1)C(=O)COS(=O)(=O)c1ccc(OC)cc1 (stereo not shown) [Compound 6] | – | > 3000 mg/kg | 52% | –
7 | CCOc1ccc(S(=O)(=O)OCC(=O)C(CC)CC2CCCCC2)cc1 (stereo not shown) [Compound 7] | 3.70 | > 3000 mg/kg | 71% | 13%
8 | CC(CC(=O)COS(=O)(=O)c1ccccc1)C1CCCCC1 (stereo not shown) [Compound 8] | 6.10 | > 3000 mg/kg | 73% | 31%
9 | Cc1ccc(S(=O)(=O)OCC(=O)CC(C)C2CCCCC2)cc1 (stereo not shown) [Compound 9] | 5.38 | > 2000 mg/kg | 70% | 31%
10 | COc1ccc(S(=O)(=O)OCC(=O)CC(C)C2CCCCC2)cc1 (stereo not shown) [Compound 10, 4-cyclohexyl-1-(4-methoxybenzenesulfonyloxy)2-pentanone] | 5.46 | > 3000 mg/kg | 46% | 22%
11 | CCOc1ccc(S(=O)(=O)OCC(=O)CC(C)C2CCCCC2)cc1 (stereo not shown) [Compound 11] | 5.14 | > 3000 mg/kg | 60% | 19%
12 | Cc1cc(C)c(S(=O)(=O)OCC(=O)CC(C)C2CCCCC2)c(C)c1 (stereo not shown) [Compound 12] | 6.00 | > 3000 mg/kg | 39% | 24%
13 | CCC(C(=O)COS(=O)(=O)c1ccc(C)cc1)C1CCC(C)CC1 (stereo not shown) [Compound 13] | 4.70 | > 2000 mg/kg | – | 50%
14 | CCOc1ccc(S(=O)(=O)OCC(=O)C(CC)C2CCC(C)CC2)cc1 (stereo not shown) [Compound 14] | 4.40 | > 3000 mg/kg | 81% | 40%
15 | Cc1ccc(S(=O)(=O)OCC(=O)CC2CCC(C)CC2)cc1 (stereo not shown) [Compound 15, 1-(4-methylcyclohexyl)-3-(p-toluenesulfonyloxy)-2-propanone] | 5.85 | > 2000 mg/kg | 85% | 94%
16 | CCOc1ccc(S(=O)(=O)OCC(=O)CC2CCC(C)CC2)cc1 (stereo not shown) [Compound 16] | 5.30 | > 3000 mg/kg | 11% | 81%
17 | CC1CCCCC1CC(=O)COS(=O)(=O)c1ccccc1 (stereo not shown) [Compound 17, 1-benzenesulfonyloxy-3-(2-methylcyclohexyl)-2-propanone] | 7.49 | > 2000 mg/kg | 72% | 97%
18 | Cc1ccc(S(=O)(=O)OCC(=O)CC2CCCCC2C)cc1 (stereo not shown) [Compound 18] | 5.08 | > 2000 mg/kg | – | 72%

Row | SMILES | pIC50 [1] | LD50 at 168 h [2] | inhibition in vivo at 100 mg/kg [3] | inhibition at 100 µM (Chymotripsin)
19 | CCOc1ccc(S(=O)(=O)OCC(=O)CC2CCCCC2C)cc1 (stereo not shown) [Compound 19] | 5.27 | > 3000 mg/kg | 74% | 57%
20 | CC(C)C1CCC(CC(=O)COS(=O)(=O)c2ccccc2)CC1 (stereo not shown) [Compound 21] | 5.22 | > 3000 mg/kg | 70% | 94%
21 | CCC1CCC(C(=O)COS(=O)(=O)c2ccccc2)CC1 (stereo not shown) [Compound 22] | 6.70 | > 2000 mg/kg | 59% | 58%
22 | CCOc1ccc(S(=O)(=O)OCC(=O)C2CCC(CC)CC2)cc1 (stereo not shown) [Compound 23] | 5.85 | > 3000 mg/kg | 67% | 24%
23 | CC(C)[C@H]1CC[C@@H](C(=O)COS(=O)(=O)c2ccccc2)CC1 [Compound 24] | 6.15 | > 3000 mg/kg | 60% | 16%
24 | CC(C)[C@H]1CC[C@H](C(=O)COS(=O)(=O)c2ccccc2)CC1 [Compound 25, trans-2-(benzene-sulfonyloxy)-1-(4-isopropylcyclohexyl)-1-ethanone] | 7.19 | > 3000 mg/kg | 90% | 62%
25 | CCOc1ccc(S(=O)(=O)OCC(=O)[C@H]2CC[C@@H](C(C)C)CC2)cc1 [Compound 26] | 4.96 | > 3000 mg/kg | 50% | 14%
26 | CCOc1ccc(S(=O)(=O)OCC(=O)[C@H]2CC[C@H](C(C)C)CC2)cc1 [Compound 27] | 5.70 | > 3000 mg/kg | 76% | 35%
27 | Cc1cc(C)c(S(=O)(=O)OCC(=O)[C@H]2CC[C@@H](C(C)C)CC2)c(C)c1 [Compound 28] | 5.92 | > 3000 mg/kg | – | –
28 | Cc1cc(C)c(S(=O)(=O)OCC(=O)[C@H]2CC[C@H](C(C)C)CC2)c(C)c1 [Compound 29] | 6.89 | > 3000 mg/kg | – | –
29 | CC(C)C[C@H]1CC[C@@H](C(=O)COS(=O)(=O)c2ccccc2)CC1 [Compound 30] | 5.40 | > 3000 mg/kg | 57% | 30%
30 | CC(C)C[C@H]1CC[C@H](C(=O)COS(=O)(=O)c2ccccc2)CC1 [Compound 31] | 5.80 | > 3000 mg/kg | 79% | 43%
31 | CCC(C)[C@H]1CC[C@@H](C(=O)COS(=O)(=O)c2ccccc2)CC1 (stereo partly shown) [Compound 32] | 6.25 | > 3000 mg/kg | 61% | 13%
32 | CCC(C)[C@H]1CC[C@H](C(=O)COS(=O)(=O)c2ccccc2)CC1 (stereo partly shown) [Compound 33] | 6.77 | > 3000 mg/kg | 76% | 19%
33 | CC(C)(C)[C@H]1CC[C@@H](C(=O)COS(=O)(=O)c2ccccc2)CC1 [Compound 34] | 5.34 | > 3000 mg/kg | 52% | –
34 | CC(C)(C)[C@H]1CC[C@H](C(=O)COS(=O)(=O)c2ccccc2)CC1 [Compound 35] | 5.34 | > 3000 mg/kg | 72% | –
35 | Cc1ccc(S(=O)(=O)OCC(=O)[C@H]2CC[C@@H](C(C)(C)C)CC2)cc1 [Compound 36] | 4.07 | > 3000 mg/kg | 52% | 44%
